Here are results for six molecules from US20250186456A1, “PYRIMIDINE-FUSED CYCLIC COMPOUND AND PREPARATION METHOD AND USE THEREOF” (Genfleet Therapeutics (Shanghai) Inc., priority 2021, published 2025).

Common to all, as to format: cell-based, human
Assay [1] relates to p-ERK in AGS cells (KRAS G12D mutation). Briefly: Cell p-ERK assay (HTRF, Advance ERK phospho-T202/Y204 kit). The following applies: AGS cells, 3 hours incubation with compound, HTRF, read-out: AGS p-ERK IC50. In outline:
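AGS cells (endogenous KRAS G12D) seeded at ~20000 cells/well overnight, then treated 3 h with 3.16-fold compound dilutions, 0.1% DMSO final. Lysates assayed for phospho-T202/Y204 ERK by HTRF after 4 h antibody incubation; inhibition vs DMSO and blank, IC50 by four-parameter fit.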

In assay [2] the test system is AsPC-1 cells (KRAS G12D mutation). Nature of the assay: Cell proliferation inhibition assay, 3D, CellTiter-Glo 3D, AsPC-1. As to conditions: AsPC-1 3D sphere model, 5 days incubation. The method in brief: (§1)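 Spheroids (800 AsPC-1 or 400 AGS cells/well; RPMI-1640 or F-12K with 10% FBS) formed overnight, then were dosed on day 2 with a 3.16-fold series at 0.1% DMSO. After 5 days, viability was read by CellTiter-Glo 3D luminescence, and IC50 came from four-parameter fits of inhibition versus DMSO control and medium blank.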
(Cellular ATP, detected with luciferase, serves as a proxy for viable cell number.)

The test system of assay [3] is AGS cells (KRAS G12D). Nature of the assay: Cell proliferation inhibition assay, 3D, CellTiter-Glo 3D, AGS. As to conditions: AGS 3D sphere model, 5 days incubation. In outline: as §1

What is called IC50 is the midpoint of a concentration-inhibition curve.

Where two headings read alike, the source gives them in different places.

For the molecule `C#Cc1c(F)ccc2cccc(-c3nc4c5c(nc(OC[C@]67CCCN6CCC7=C)nc5c3F)N3C[C@H]5CC[C@H](N5)[C@H]3[C@H](C(F)F)O4)c12` [Example Z648, (5R,5aS,6S,9R)-5-(difluoromethyl)-2-(8-etbynyl-7-fluoronaphthalen-1-yl)-1-fluoro-12-(((R)-1-methylenetetrahydro-1H-pyrrolizin-7a (5H)-yl)methoxy)-5a,6,7,8,9,10-hexahydro-5H-4-oxa-3,10a, 11,13,14-pentaaza-6,9-methanonaphtho[1,8-ab]heptalene], the IC50 in assay [1] came out at 14.6 nM; in assay [2], 53.5 nM; in assay [3], 39.1 nM.
On to `C#Cc1c(F)ccc2cccc(-c3nc4c5c(nc(OCC6(CN7CCC(=C)C7)CC6)nc5c3F)N3C[C@H]5CC[C@H](N5)[C@H]3[C@H](C)O4)c12` [Example Z698, (5S,5aS,6S,9R)-2-(8-Ethynyl-7-Fluoronaphthalen-1-Yl)-1-Fluoro-5-Methyl-12-((1-((3-Methylenepyrrolidin-1-Yl)Methyl)Cyclopropyl)Methoxy)-5a,6,7,8,9,10-Hexahydro-5H-4-Oxa-3,10a,11,13,14-Pentaaza-6,9-Methanonaphtho[1,8-Ab]Heptalene], for which the IC50 in assay [1] (Homo sapiens) was 21.7 nM; in assay [2] (Homo sapiens, ASPC1, 120 h), 49.3 nM; in assay [3] (Homo sapiens, 120 h), 18.8 nM.
With `C[C@@H]1Oc2nc(-c3cc(N)cc4ccc(F)c(F)c34)c(F)c3nc(OCC45CCCN4CC(F)(F)C5)nc(c23)N2C[C@H]3CC[C@H](N3)[C@@H]12` (stereo partly drawn) [Example Z720, 4-((5S,5aS,6S,9R)-12-((2,2-difluorotetrahydro-1H-pyrrolizin-7a (5H)-yl)methoxy)-1-fluoro-5-methyl-5a,6,7,8,9,10-hexahydro-5H-4-oxa-3,10a, 11,13,14-pentaaza-6,9-methanonaphtho[1,8-ab]heptalene-2-yl)-5,6-difluoronaphthalen-2-amine], the IC50 in assay [1] (Homo sapiens) was 35.1 nM; in assay [2] (Homo sapiens, ASPC1, 120 h), 33.4 nM; in assay [3] (Homo sapiens, 120 h), 15.7 nM.
Consider “5-ethynyl-3-fluoro-4-((58,5aS,6S,9R)-1-fluoro-S-methyl-12-((1-(morpholinomethyl)cyclopropyl)methoxy)-5a,6,7,8,9,10-hexahydro-5H-4-oxa-3,10a, 11, 13,14-pentaaza-6,9-methanonaphtho[1,8-ab]heptalene-2-yl) naphthalen-2-amine [Example Z707]”, for which the values for the IC50 in assay [1], in assay [2] and in assay [3] were 0.95 nM, 5.24 nM and 7.44 nM, respectively.
Take `C#Cc1cccc2cccc(-c3nc4c5c(nc(OC[C@@]67CCCN6C[C@H](F)C7)nc5c3F)N3C[C@H]5CC[C@H](N5)[C@H]3[C@H](C)O4)c12` [Example Z360-1, (5S,5aS,6S,9R)-2-(8-ethynylnaphthalen-1-yl)-1-fluoro-12-(((2R,7aS)-2-fluorotetrahydro-1H-pyrrolizin-7a (5H)-yl)methoxy)-5-methyl-5a,6,7,8,9,10-hexahydro-5H-4-oxa-3,10a, 11,13,14-pentaaza-6,9-methanonaphtho[1,8-ab]heptalene]: the IC50 stood at 29.9 nM in assay [1] (Homo sapiens); 36.4 nM in assay [2] (Homo sapiens, ASPC1, 120 h); 27.8 nM in assay [3] (Homo sapiens, 120 h).
As for `C#Cc1cccc2cc(N)cc(-c3nc4c5c(nc(OCC6(CN7CCOCC7)CC6)nc5c3F)N3C[C@H]5CC[C@H](N5)[C@H]3[C@H](C)O4)c12` [Example Z700, 5-Ethynyl-4-((5S,5aS,6S,9R)-1-Fluoro-5-Methyl-12-((1-(Morpholinomethyl)Cyclopropyl)Methoxy)-5a,6,7,8,9,10-Hexahydro-5H-4-Oxa-3,10a, 11,13,14-Pentaaza-6,9-Methanonaphtho[1,8-Ab]Heptalen-2-Yl) Naphthalen-2-Amine], the IC50 in assay [1] (Homo sapiens) was 0.39 nM; in assay [2] (Homo sapiens, ASPC1, 120 h), 2.14 nM; in assay [3] (Homo sapiens, 120 h), 1.91 nM.
